How the values were obtained:
Assay in all cases: area under dose-response curve (viability, 1 nM-10 uM) (fraction (0-1)); higher = more sensitive
Conditions in all cases: 72 h
[1] = test system: myeloid leukemia patient primary cells Pat.2
Protocol: (§1)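 AUC (0–1, higher = more sensitive) of the 5-point dose–response (1 nM–10 µM, 72 h, CellTiter-Glo) in primary AML/CML patient mononuclear cells. 0.030103 is the floor for inactive compounds.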

[2] = test system: myeloid leukemia patient primary cells Pat.14
Protocol: as §1

[3] = test system: myeloid leukemia patient primary cells Pat.15
Protocol: as §1

[4] = test system: myeloid leukemia patient primary cells Pat.7
Protocol: as §1

[5] = test system: myeloid leukemia patient primary cells Pat.8
Protocol: as §1

[6] = test system: myeloid leukemia patient primary cells Pat.6
Protocol: as §1

[7] = test system: myeloid leukemia patient primary cells Pat.11
Protocol: as §1

[8] = test system: myeloid leukemia patient primary cells Pat.12
Protocol: as §1

[9] = test system: myeloid leukemia patient primary cells Pat.4
Protocol: as §1

[10] = test system: myeloid leukemia patient primary cells Pat.5
Protocol: as §1

[11] = test system: myeloid leukemia patient primary cells Pat.1
Protocol: as §1

[12] = test system: myeloid leukemia patient primary cells Pat.3
Protocol: as §1

HL-60 = test system: HL-60
How it was run: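 In 384-well plates, the full library was rescreened in duplicate on HL-60 cells in RPMI 1640 with 10% FBS, at 1–10,000 nM in five tenfold concentrations, for 72 h at 37 °C, 5% CO2. Each run also held DMSO or 100 nM of one of three metabolic inhibitors. Viability was measured by CellTiter-Glo and normalised to DMSO wells and to wells with proteasome inhibitor, present at 10 μM. Any area under the curve comes from four-parameter log-logistic fitting with drc and PharmacoGx.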

[13] = test system: myeloid leukemia patient primary cells Pat.13
Protocol: as §1

[14] = test system: myeloid leukemia patient primary cells Pat.10
Protocol: as §1

[15] = test system: myeloid leukemia patient primary cells Pat.9
Protocol: as §1

[16] = co-treatment: GSK2194069 100 nM
[17] = co-treatment: pictilisib 100 nM

| SMILES | area under dose-response curve [1] | area under dose-response curve [2] | area under dose-response curve [3] | area under dose-response curve [4] | area under dose-response curve [5] | area under dose-response curve [6] | area under dose-response curve [7] | area under dose-response curve [8] | area under dose-response curve [9] | area under dose-response curve [10] | area under dose-response curve [11] | area under dose-response curve [12] | area under dose-response curve (HL-60; co-treatment: AZD3965 100 nM) | area under dose-response curve (HL-60; co-treatment: DMSO vehicle) | area under dose-response curve (HL-60; [16]) | area under dose-response curve (HL-60; [17]) | area under dose-response curve [13] | area under dose-response curve [14] | area under dose-response curve [15] |
| --- | --- | --- | --- | --- | --- | --- | --- | --- | --- | --- | --- | --- | --- | --- | --- | --- | --- | --- | --- |
| COc1c(C)c2c(c(O)c1C/C=C(\C)CCC(=O)O)C(=O)OC2 [Mycophenolic acid] | < 0.0301 | < 0.0301 | < 0.0301 | < 0.0301 | 0.0355 | < 0.0301 | < 0.0301 | < 0.0301 | 0.0528 | < 0.0301 | < 0.0301 | 0.0922 | 0.0599 | < 0.0301 | 0.0302 | 0.0317 |  |  |  |
| Cc1c(-c2ccccc2)oc2c(C(=O)OCCN3CCCCC3)cccc2c1=O.Cl [Flavoxate] |  |  |  |  |  |  |  |  |  |  |  |  | < 0.0301 | < 0.0301 | < 0.0301 | < 0.0301 |  |  |  |
| CC(Cc1ccc(O)c(O)c1)C(C)Cc1ccc(O)c(O)c1 (configuration not stated) [Masoprocol] |  |  | 0.111 | 0.294 | 0.186 | 0.15 | < 0.0301 | 0.0847 | 0.119 | < 0.0301 | 0.075 | 0.299 | 0.12 | 0.104 | 0.0826 | 0.142 | 0.0768 | < 0.0301 | 0.3 |
| N[C@](CCCCB(O)O)(CCN1CCCCC1)C(=O)O [Arginase inhibitor 1] |  |  |  |  |  |  |  |  |  |  |  |  | 0.0306 | 0.0367 | 0.0592 |  |  |  |  |
| [N-]=[N+]=CC(=O)CC[C@H](N)C(=O)O [6-Diazo-5-oxo-L-norleucine] |  |  |  |  |  |  |  |  |  |  |  |  | < 0.0301 | < 0.0301 | < 0.0301 | < 0.0301 |  |  |  |
| O=C(COc1ccc(C(=O)c2ccccc2)cc1)NC1CCN(Cc2ccccc2)CC1 [AdipoRon] |  |  |  |  |  |  |  |  |  |  |  |  | < 0.0301 | < 0.0301 | < 0.0301 | < 0.0301 |  |  |  |
| CCN(CC)CCN(Cc1ccc(-c2ccc(C(F)(F)F)cc2)cc1)C(=O)Cn1c(SCc2ccc(F)cc2)nc(=O)c2c1CCC2 [Darapladib] | 0.143 | 0.241 | 0.124 | 0.502 | 0.117 | 0.137 | 0.137 | 0.134 | 0.123 | 0.947 | 0.111 | 0.211 | 0.144 | 0.14 | 0.167 | 0.134 | 0.154 | 0.104 | 0.625 |
| O=C1Nc2ccccc2/C1=C\NCCc1ccc(O)c(O)c1 [AC1NZZMF] |  |  |  |  |  |  |  |  |  |  |  |  | < 0.0301 | < 0.0301 | < 0.0301 | < 0.0301 |  |  |  |
| CCOC(=O)[C@@]1(CCCCCCOc2ccc(Cl)cc2)CO1 [Etomoxir] |  |  |  |  |  |  |  |  |  |  |  |  | < 0.0301 | < 0.0301 | < 0.0301 | < 0.0301 |  |  |  |
| Cc1ccc(S(=O)(=O)NC2c3ccccc3Oc3ccccc32)cc1 [AH-7614] |  |  |  |  |  |  |  |  |  |  |  |  | < 0.0301 | < 0.0301 | < 0.0301 | < 0.0301 |  |  |  |
| c1ccc2c(c1)OCC(=C1NCCN1)O2 [Idazoxan] |  |  |  |  |  |  |  |  |  |  |  |  | < 0.0301 | < 0.0301 | < 0.0301 | < 0.0301 |  |  |  |
| C[C@]12CC[C@H](O)CC1=CC[C@@H]1[C@@H]2CC[C@]2(C)C(c3cccnc3)=CC[C@@H]12 [Abiraterone] |  |  |  |  |  |  |  |  |  |  |  |  | < 0.0301 | < 0.0301 | < 0.0301 | < 0.0301 |  |  |  |
| Cc1coc2c1C(=O)C(=O)c1c-2ccc2c(C)cccc12 [Tanshinone I] |  |  |  |  |  |  |  |  |  |  |  |  | < 0.0301 | < 0.0301 | < 0.0301 | < 0.0301 |  |  |  |
| CC12CCC(O)CC1CCC1C2CCC2(C)C(C3=CC(=O)OC3)CCC12O (configuration not stated) [Digitoxigenin] | 0.27 | 0.305 | 0.357 | < 0.0301 | 0.391 | 0.26 | 0.279 | 0.208 | 0.373 | 0.713 | 0.388 | 0.601 | 0.372 | 0.376 | 0.386 | 0.374 | 0.324 | < 0.0301 | 0.658 |
| Sc1ncnc2nc[nH]c12 [6-mercaptopurine] | < 0.0301 | < 0.0301 | < 0.0301 | < 0.0301 | < 0.0301 | < 0.0301 | < 0.0301 | < 0.0301 | < 0.0301 | 0.588 | < 0.0301 | 0.44 | 0.0762 | 0.0564 | 0.0946 | 0.0609 | < 0.0301 |  | 0.0529 |
| C1CCc2nnc(C34CC5CC(CC(C5)C3)C4)n2CC1 [MERCK-544] |  |  |  |  |  |  |  |  |  |  |  |  | < 0.0301 | < 0.0301 | < 0.0301 | < 0.0301 |  |  |  |
| Cl.OC[C@H]1NC[C@@H](O)[C@@H](O)[C@@H]1O [1-Deoxymannojirimycin hydrochloride] |  |  |  |  |  |  |  |  |  |  |  |  | < 0.0301 | < 0.0301 | < 0.0301 | < 0.0301 |  |  |  |
| Nc1ncnc2c1ncn2[C@@H]1O[C@H](CSCC[C@H](N)C(=O)O)[C@@H](O)[C@H]1O [S-Adenosyl Homocysteine] |  |  |  |  |  |  |  |  |  |  |  |  | < 0.0301 | < 0.0301 | < 0.0301 | < 0.0301 |  |  |  |
| O=C(O)CCc1ccc(NCc2cccc(Oc3ccccc3)c2)cc1 [GW9508] |  |  |  |  |  |  |  |  |  |  |  |  | < 0.0301 | < 0.0301 | < 0.0301 | < 0.0301 |  |  |  |
| CC(/C=C1\SC(=S)N(CC(=O)O)C1=O)=C\c1ccccc1 [Epalrestat] |  |  |  |  |  |  |  |  |  |  |  |  | < 0.0301 | < 0.0301 | < 0.0301 | < 0.0301 |  |  |  |
| OCCN1CCN(CCCN2c3ccccc3Sc3ccc(Cl)cc32)CC1 [Perphenazine] |  |  |  |  |  |  |  |  |  |  |  |  | 0.0332 | < 0.0301 | 0.0329 | < 0.0301 |  |  |  |
